Results from patent US20040110771A1, “7-(r)-aminotriazolopyrimidines, the production thereof and use of the same for combatting phytopathogenic fungi” (priority 2000, published 2004).

How the values were obtained:
Format in all cases: in vivo
Septoria tritici = experiment: Protective activity against Septoria foliar blotch disease of wheat caused by Septoria tritici; details: wheat seedlings "Riband", inoculated 24 h after spraying, 2 weeks
Protocol: (§1) The active compounds were prepared separately or jointly as a 10% strength emulsion in a mixture of 70% by weight of cyclohexanone, 20% by weight of Nekanil® LN (Lutensol® AP6, wetting agent having emulsifying and dispersing action based on ethoxylated alkylphenols) and 10% by weight of Wettol® EM (nonionic emulsifier based on ethoxylated castor oil) and diluted with water to the desired concentration.
Leaves of potted wheat seedlings of the cultivar “Riband” were sprayed to runoff point with an aqueous preparation of active compound which had been prepared from a stock solution made of 10% of active compound, 85% of cyclohexanone and 5% of emulsifier. 24 hours after the spray coating had dried on, they were inoculated with an aqueous spore suspension of Septoria tritici. The suspension contained 2.0×10^6 spores/ml. The test plants were then placed in a greenhouse at 18-22° C. and a relative atmospheric humidity of close to 100%. After 2 weeks, the extent of the development of the disease was determined visually in % infection of the entire leaf area.

Pyrenophora teres = experiment: Activity against net blotch of barley caused by Pyrenophora teres; details: barley seedlings "Igri", inoculated 24 h after spraying, 6 days
Protocol: as §1
Leaves of potted barley seedlings of the cultivar “Igri” were sprayed to runoff point with an aqueous preparation of active compound which had been prepared from a stock solution made of 10% of active compound, 85% of cyclohexanone and 5% of emulsifier and were inoculated 24 hours after the spray coating had dried on with an aqueous spore suspension of Pyrenophora teres, the net blotch pathogen. The test plants were then placed in a greenhouse at 20-24° C. and 95-100% relative atmospheric humidity. After 6 days, the extent of the development of the disease was determined visually in % infection of the entire leaf area.

[1] = test system: Blumeria graminis forma specialis tritici; experiment: Activity against mildew of wheat caused by Blumeria graminis forma specialis tritici; details: wheat seedlings "Kanzler", dusted with spores 24 h after spraying, 7 days
Protocol: as §1
Leaves of potted wheat seedlings of the cultivar “Kanzler” were sprayed to runoff point with an aqueous preparation of active compound which had been prepared from a stock solution made of 10% of active compound, 85% of cyclohexanone and 5% of emulsifier and were dusted 24 hours after the spray coating had dried on with spores of mildew of wheat (Blumeria graminis forma specialis tritici). The test plants were then placed in a greenhouse at 20-24° C. and 60-90% relative atmospheric humidity. After 7 days, the extent of the mildew development was determined visually in % infection of the entire leaf area.

Puccinia recondita = experiment: Curative activity against brown rust of wheat caused by Puccinia recondita; details: curative spray 24 h after inoculation, wheat seedlings "Kanzler", 7 days
Protocol: as §1
Leaves of potted wheat seedlings of the cultivar “Kanzler” were dusted with spores of brown rust (Puccinia recondita). The pots were then placed in a chamber with high atmospheric humidity (90 to 95%) at 20-22° C. for 24 hours. During this period, the spores germinated and the germinal tubes penetrated into the leaf tissue. The following day, the infected plants were sprayed to runoff point with an aqueous preparation of active compound which had been prepared from a stock solution made of 10% of active compound, 85% of cyclohexanone and 5% of emulsifier. After the spray coating had dried on, the test plants were cultivated in a greenhouse at 20-22° C. and 65-70% relative atmospheric humidity for 7 days. The extent of the rust fungus development on the leaves was then determined.

| Compound | % infection of the leaves after application of an aqueous preparation comprising . . . ppm of active compound (Septoria tritici; 16 ppm) [%] | % infection of the leaves after application of an aqueous preparation comprising . . . ppm of active compound (Septoria tritici; 63 ppm) [%] | % infection of the leaves after application of an aqueous preparation comprising . . . ppm of active compound (Septoria tritici; 250 ppm) [%] | % infection of the leaves after application of an aqueous preparation comprising . . . ppm of active compound (Pyrenophora teres; 16 ppm) [%] | % infection of the leaves after application of an aqueous preparation comprising . . . ppm of active compound (Pyrenophora teres; 63 ppm) [%] | % infection of the leaves after application of an aqueous preparation comprising . . . ppm of active compound (Pyrenophora teres; 250 ppm) [%] | % infection of the leaves after application of an aqueous preparation comprising . . . ppm of active compound ([1]; 16 ppm) [%] | % infection of the leaves after application of an aqueous preparation comprising . . . ppm of active compound ([1]; 63 ppm) [%] | % infection of the leaves after application of an aqueous preparation comprising . . . ppm of active compound ([1]; 250 ppm) [%] | % infection of the leaves after application of an aqueous preparation comprising . . . ppm of active compound (Puccinia recondita; 16 ppm) [%] | % infection of the leaves after application of an aqueous preparation comprising . . . ppm of active compound (Puccinia recondita; 63 ppm) [%] | % infection of the leaves after application of an aqueous preparation comprising . . . ppm of active compound (Puccinia recondita; 250 ppm) [%] |
| --- | --- | --- | --- | --- | --- | --- | --- | --- | --- | --- | --- | --- |
| C[C@@H](Nc1c(-c2ccccc2Cl)c(Cl)nc2ncnn12)C(C)(C)C (single isomer, unassigned) [I.-44b] | 30 | 10 | 10 | – | – | – | – | – | – | – | – | – |
| CC(C)C(C)Nc1c(-c2c(Cl)cccc2Cl)c(Cl)nc2ncnn12 (centres unmarked) [I.-8] | 70 | 30 | 30 | 40 | 15 | 15 | – | – | – | – | – | – |
| COc1cc(F)c(-c2c(Cl)nc3ncnn3c2N[C@H](C)C(C)C)c(F)c1 [I.-17] | 10 | 10 | 10 | – | – | – | 60 | 60 | 60 | – | – | – |
| COc1cc(F)c(-c2c(Cl)nc3ncnn3c2N[C@H](C)C(C)(C)C)c(F)c1 [I.-18] | – | – | 30 | – | – | – | – | – | – | – | – | – |
| CC(C)C(C)Nc1c(-c2ccccc2C(F)(F)F)c(Cl)nc2ncnn12 (centres unmarked) [I.-25] | 0 | 0 | 0 | – | – | – | – | – | – | – | – | – |
| CC(Nc1c(-c2ccccc2C(F)(F)F)c(Cl)nc2ncnn12)C(C)(C)C (centres unmarked) [I.-26] | 3 | 0 | 0 | – | – | – | – | – | – | – | – | – |
| CC[C@H](C)Nc1c(-c2c(C)cccc2F)c(Cl)nc2ncnn12 [comparison (S)-amine of I.-10] | – | – | – | – | 100 | 40 | – | 100 | 100 | 100 | 100 | 100 |
| Cc1cccc(F)c1-c1c(Cl)nc2ncnn2c1NC(C)C(C)C [comparison (S)-amine of I.-11a] | – | – | – | 100 | 100 | 100 | 80 | 60 | 60 | 100 | 60 | 30 |
| Cc1cccc(F)c1-c1c(Cl)nc2ncnn2c1NC(C)C(C)C [comparison (S)-amine of I.-11b] | – | – | – | – | 100 | 100 | – | 60 | 60 | – | 100 | 100 |
| CC[C@H](C)Nc1c(-c2c(F)cc(F)cc2F)c(Cl)nc2ncnn12 [comparison (S)-amine of I.-13] | – | – | – | 60 | – | – | 100 | 60 | – | 60 | 3 | – |
| COc1cc(F)c(-c2c(Cl)nc3ncnn3c2N[C@@H](C)C(C)C)c(F)c1 [comparison (S)-amine of I.-17] | 90 | 90 | 90 | – | – | – | 100 | 100 | 100 | – | – | – |
| COc1cc(F)c(-c2c(Cl)nc3ncnn3c2N[C@@H](C)C(C)(C)C)c(F)c1 [comparison (S)-amine of I.-18] | – | – | 80 | – | – | – | – | – | – | – | – | – |
| CCC(C)Nc1c(-c2ccc(F)cc2C)c(Cl)nc2ncnn12 [comparison (S)-amine of I.-22] | – | – | – | 80 | 7 | – | 80 | 70 | 70 | 100 | 100 | 100 |
| Cc1cc(F)ccc1-c1c(Cl)nc2ncnn2c1N[C@@H](C)C(C)C [comparison (S)-amine of I.-23] | – | – | – | 60 | – | – | 60 | 60 | 40 | 100 | 100 | 100 |
| CC(C)[C@H](C)Nc1c(-c2ccccc2C(F)(F)F)c(Cl)nc2ncnn12 [comparison (S)-amine of I.-25] | 100 | 100 | 100 | – | – | – | – | – | – | – | – | – |
| CC(Nc1c(-c2ccccc2C(F)(F)F)c(Cl)nc2ncnn12)C(C)(C)C [comparison (S)-amine of I.-26] | 100 | 100 | 100 | – | – | – | – | – | – | – | – | – |
| CC(Nc1c(-c2ccccc2Cl)c(Cl)nc2ncnn12)C(C)(C)C [comparison (S)-amine of I.-44b] | 80 | 80 | 80 | – | – | – | – | – | – | – | – | – |
